SMILES strings stand for the structures.

The first assay addresses WDR5 (Homo sapiens (Human), UniProt P61964). The experiment in a line: Surface Plasmon Resonance (SPR) assay, KD and residence time. Particulars: surface plasmon resonance (SPR) assay; read-out: WDR5 binding affinity (KD). The assay is classed as binding. As to the method: (i) Surface Plasmon Resonance (SPR) Assay
The lifetime of a drug on its target is determined by two rate constants: the association rate constant (kon) and the dissociation rate constant (koff). In principle, the lifetime of the binary drug—target complex is thus extended by a rapid rate of drug binding and/or a slow rate of drug—target complex dissociation. The in vivo lifetime of a drug-target complex is most critically dependent on the value of the koff [Nat. Rev. Drug Discov. […] Drug Discov. […] Drug-target residence time is defined as the reciprocal of koff (τ=1/koff), making the residence time a parameter that is easily measured by routine in vitro assay methods.
On the technique in general: In SPR one partner is held on a chip, and binding of the other changes the refractive index at the surface.
Take `C[C@H]1CN(c2cc(F)c(-c3cnc(N4CCOCC4)nc3)cc2NC(=O)c2ccc(F)cc2C(F)(F)F)C[C@H](C)N1C` (racemic) [Example 387, 4-fluoro-N-[4-fluoro-5-(2-morpholin-4-ylpyrimidin-5-yl)-2-[(3R,5R)-3,4,5-trimethylpiperazin-1-yl]phenyl]-2-(trifluoromethyl)benzamide]: the Kd was determined as 83.5 nM. In the case of `C[C@@H]1CN(c2cc(F)c(-c3ccc(N4CCOCC4)c(Cl)c3)cc2NC(=O)c2c[nH]c(=O)cc2C(F)(F)F)C[C@H](C)N1C` [Example 68, N-[5-(3-chloro-4-morpholin-4-ylphenyl)-4-fluoro-2-[(3R,5S)-3,4,5-trimethylpiperazin-1-yl]phenyl]-6-oxo-4-(trifluoromethyl)-1H-pyridine-3-carboxamide], the Kd stood at 1.34 nM. For the compound `CN(C)[C@@H]1CCN(c2cc(F)c(-c3cnc(N4CCOCC4)nc3)cc2NC(=O)c2cn(C)nc2C(F)(F)F)C1` [Example 283, N-[4-fluoro-5-(2-morpholin-4-ylpyrimidin-5-yl)-2-[(3R)-3-(dimethylamino)pyrrolidin-1-yl]phenyl]-1-methyl-3-(trifluoromethyl)pyrazole-4-carboxamide], the Kd came to 14.8 nM. With `CC1CN(c2cc(F)c(-c3cnc(N4CCOCC4)nc3)cc2NC(=O)c2cnn(C)c2)CCN1C` (stereo in doubt) [Example 121, N-[4-fluoro-5-(2-morpholin-4-ylpyrimidin-5-yl)-2-[(3R)-3,4-dimethylpiperazin-1-yl]phenyl]-1-methylpyrazole-4-carboxamide], the Kd turned out to be 33.4 nM.

Turning to `C[C@@H]1CN(c2cc(F)c(-c3cnc(N(C)C)nc3)cc2NC(=O)c2c[nH]c(=O)cc2C(F)(F)F)C[C@H](C)N1C` [Example 103, N-[5-[2-(dimethylamino)pyrimidin-5-yl]-4-fluoro-2-[(3R,5S)-3,4,5-trimethylpiperazin-1-yl]phenyl]-6-oxo-4-(trifluoromethyl)-1H-pyridine-3-carboxamide], the Kd was 0.168 nM. The same measure, in the same setting: the figure for `C[C@@H]1CN(c2cc(F)c(C3=CCN(Cc4cccnc4)CC3)cc2NC(=O)c2c[nH]c(=O)cc2C(F)(F)F)C[C@H](C)N1C` [Example 154, N-[4-fluoro-5-[1-(pyridin-3-ylmethyl)-3,6-dihydro-2H-pyridin-4-yl]-2-[(3R,5S)-3,4,5-trimethylpiperazin-1-yl]phenyl]-6-oxo-4-(trifluoromethyl)-1H-pyridine-3-carboxamide] is 5.46 nM; for `CC(=O)Nc1ccc(-c2cc(NC(=O)c3c[nH]c(=O)cc3C(F)(F)F)c(N3CCN(C)C(C)C3)cc2F)cn1` (stereo in doubt) [Example 196, N-[5-(6-acetamidopyridin-3-yl)-4-fluoro-2-[(3R)-3,4-dimethylpiperazin-1-yl]phenyl]-6-oxo-4-(trifluoromethyl)-1H-pyridine-3-carboxamide] it is 0.24 nM.

Take `C[C@@H]1CN(c2cc(F)c(-c3ccc(N4CCOCC4)c(F)c3)cc2NC(=O)c2c[nH]c(=O)cc2C(F)(F)F)C[C@H](C)N1C` [Example 124, N-[4-fluoro-5-(3-fluoro-4-morpholin-4-ylphenyl)-2-[(3R,5S)-3,4,5-trimethylpiperazin-1-yl]phenyl]-6-oxo-4-(trifluoromethyl)-1H-pyridine-3-carboxamide]: the Kd amounted to 0.439 nM.

Still in this assay, the particulars now being: surface plasmon resonance (SPR); read-out: WDR5 binding affinity (KD).
As for `C[C@@H]1CN(c2nccc(-c3cc(NC(=O)c4cn(C)c(=O)cc4C(F)F)c(N4C[C@@H](C)N(C)[C@@H](C)C4)cc3F)n2)C[C@H](C)O1` [Example 745, 4-(difluoromethyl)-N-[4-fluoro-5-[2-[(2R,6S)-2,6-dimethylmorpholin-4-yl]pyrimidin-4-yl]-2-[(3R,5S)-3,4,5-trimethylpiperazin-1-yl]phenyl]-1-methyl-6-oxopyridine-3-carboxamide], the Kd was found to be 5.6 nM.

As to `C[C@@H]1CN(c2ccc(-c3cc(NC(=O)c4c[nH]c(=O)cc4C(F)F)c(N4CCN(C)[C@H](C)C4)cc3F)cn2)CCO1` (stereo in doubt) [Example 507, 4-(difluoromethyl)-N-[4-fluoro-2-[(3R)-3,4-dimethylpiperazin-1-yl]-5-[6-[(2R)-2-methylmorpholin-4-yl]pyridin-3-yl]phenyl]-6-oxo-1H-pyridine-3-carboxamide], the Kd was found to be 1.76 nM.

On to `C[C@@H]1CN(c2cc(F)c(-c3nc(C#N)cs3)cc2NC(=O)c2c[nH]c(=O)cc2C(F)(F)F)C[C@H](C)N1C` [Example 446, N-[5-(4-cyano-1,3-thiazol-2-yl)-4-fluoro-2-[(3R,5S)-3,4,5-trimethylpiperazin-1-yl]phenyl]-6-oxo-4-(trifluoromethyl)-1H-pyridine-3-carboxamide], for which the Kd turned out to be 2.94 nM. `C[C@@H]1CN(c2ncc(-c3cc(NC(=O)c4cn(C)c(=O)cc4C(F)(F)F)c(N4CCN(C)[C@H](C)C4)cc3F)cn2)CCO1` (stereo in doubt) [Example 450, N-[4-fluoro-2-[(3R)-3,4-dimethylpiperazin-1-yl]-5-[2-[(2R)-2-methylmorpholin-4-yl]pyrimidin-5-yl]phenyl]-1-methyl-6-oxo-4-(trifluoromethyl)pyridine-3-carboxamide]: the Kd is 1.02 nM. The same measure, in the same setting: for `C[C@@H]1CN(c2cc(F)c(-c3cc(C(N)=O)c(F)cc3F)cc2NC(=O)c2c[nH]c(=O)cc2C(F)F)C[C@H](C)N1C` [Example 633, N-[5-(5-carbamoyl-2,4-difluorophenyl)-4-fluoro-2-[(3R,5S)-3,4,5-trimethylpiperazin-1-yl]phenyl]-4-(difluoromethyl)-6-oxo-1H-pyridine-3-carboxamide] the value was 11.9 nM; for `C[C@@H]1CN(c2cc(F)c(-c3csc(C(=O)NC4CCCCC4)n3)cc2NC(=O)c2c[nH]c(=O)cc2C(F)(F)F)C[C@H](C)N1C` [Example 533, N-cyclohexyl-4-[2-fluoro-5-[[6-oxo-4-(trifluoromethyl)-1H-pyridine-3-carbonyl]amino]-4-[(3R,5S)-3,4,5-trimethylpiperazin-1-yl]phenyl]-1,3-thiazole-2-carboxamide], 1.98 nM.

In the case of `CC1CN(c2cc(F)c(-c3ccc(C(N)=O)c(F)c3)cc2NC(=O)c2c[nH]c(=O)cc2C(F)F)CCN1C` (stereo in doubt) [Example 595, N-[5-(4-carbamoyl-3-fluorophenyl)-4-fluoro-2-[(3R)-3,4-dimethylpiperazin-1-yl]phenyl]-4-(difluoromethyl)-6-oxo-1H-pyridine-3-carboxamide], the Kd came to 1.18 nM. Still for that read-out and setting: the figure for `CC1CN(c2cc(F)c(-c3cccc(N4CCOCC4)n3)cc2NC(=O)c2ccc(F)cc2C(F)(F)F)CCN1C` (stereo in doubt) [Example 673, 4-fluoro-N-[4-fluoro-5-(6-morpholin-4-ylpyridin-2-yl)-2-[(3R)-3,4-dimethylpiperazin-1-yl]phenyl]-2-(trifluoromethyl)benzamide] is 3.18 nM; for `C[C@@H]1CN(c2cc(F)c(-c3csc(C(=O)N(C)C4CCCCC4)n3)cc2NC(=O)c2cn(C)c(=O)cc2C(F)(F)F)C[C@H](C)N1C` [Example 526, N-cyclohexyl-4-[2-fluoro-5-[[1-methyl-6-oxo-4-(trifluoromethyl)pyridine-3-carbonyl]amino]-4-[(3R,5S)-3,4,5-trimethylpiperazin-1-yl]phenyl]-N-methyl-1,3-thiazole-2-carboxamide] it is 4.89 nM; for `CC1CN(c2cc(F)c(-c3cccc(N4CCOCC4)n3)cc2NC(=O)c2c[nH]c(=O)cc2C(F)F)CCN1C` (stereo in doubt) [Example 721, 4-(difluoromethyl)-N-[4-fluoro-5-(6-morpholin-4-ylpyridin-2-yl)-2-[(3R)-3,4-dimethylpiperazin-1-yl]phenyl]-6-oxo-1H-pyridine-3-carboxamide] it is 1.62 nM. Regarding `C[C@@H]1CN(c2cc(F)c(-c3cc(F)c(C(=O)NC4CCCCC4(C)C)c(F)c3)cc2NC(=O)c2c[nH]c(=O)cc2C(F)(F)F)C[C@H](C)N1C` (stereo partly drawn) [Example 711, N-[5-[4-[(2,2-dimethylcyclohexyl)carbamoyl]-3,5-difluorophenyl]-4-fluoro-2-[(3R,5S)-3,4,5-trimethylpiperazin-1-yl]phenyl]-6-oxo-4-(trifluoromethyl)-1H-pyridine-3-carboxamide], the Kd is 3.17 nM. The same measure, in the same setting: for `C[C@@H]1CN(c2cc(F)c(C3=CCN(C(=O)N4CCCC4)C3)cc2NC(=O)c2c[nH]c(=O)cc2C(F)F)C[C@H](C)N1C` [Example 612, 4-(Difluoromethyl)-N-(4-fluoro-5-(1-(pyrrolidine-1-carbonyl)-2,5-dihydro-1H-pyrrol-3-yl)-2-((3S,5R)-3,4,5-trimethylpiperazin-1-yl)phenyl)-6-oxo-1,6-dihydropyridine-3-carboxamide] the value was 1.94 nM; for `CC1CN(c2cc(F)c(-c3cnc(N4CCOC(C)(C)C4)nc3)cc2NC(=O)c2ccc(F)cc2C(F)(F)F)CCN1C` (stereo in doubt) [Example 558, N-[5-[2-(2,2-dimethylmorpholin-4-yl)pyrimidin-5-yl]-4-fluoro-2-[(3R)-3,4-dimethylpiperazin-1-yl]phenyl]-4-fluoro-2-(trifluoromethyl)benzamide], 3.78 nM; for `CCOC(=O)N1CCC=C(c2cc(NC(=O)c3c[nH]c(=O)cc3C(F)F)c(N3C[C@@H](C)N(C)[C@@H](C)C3)cc2F)C1` [Example 648, Ethyl 5-[5-[[4-(difluoromethyl)-6-oxo-1H-pyridine-3-carbonyl]amino]-2-fluoro-4-[(3R,5S)-3,4,5-trimethylpiperazin-1-yl]phenyl]-3,6-dihydro-2H-pyridine-1-carboxylate], 1.97 nM.

For `CC1CN(c2cc(F)c(-c3ccc(F)c(C(N)=O)c3)cc2NC(=O)c2c[nH]c(=O)cc2C(F)F)CCN1C` (stereo in doubt) [Example 596, N-[5-(3-carbamoyl-4-fluorophenyl)-4-fluoro-2-[(3R)-3,4-dimethylpiperazin-1-yl]phenyl]-4-(difluoromethyl)-6-oxo-1H-pyridine-3-carboxamide], the Kd worked out at 4.03 nM.

What is called Kd is the equilibrium constant for the complex coming apart.

The record behind these values is patent US11319299B2, “Substituted carboxamides as inhibitors of WDR5 protein-protein binding” (PROPELLON THERAPEUTICS INC., priority 2016, dated 2022).
